Legend:
RAW 264.7 cells = test: Reversal of LPS-induced inhibition of RAW 264.7 cell proliferation; type: cell-based, murine; settings: 5 ng/ml of LPS; FIG. 8
Experimental: When LPS is added to RAW 264.7 cells it causes a dose-dependent inhibition of proliferation with differentiation of the cells into a macrophage phenotype.

Pseudomonas aeruginosa = test: Bacterial proliferation, 3H-thymidine incorporation; type: cell-based
Experimental: (§1) Bacteria were grown in trypticase broth overnight.
(§2) To corroborate the anti-bacterial activity shown in the CFU assays, inhibition of proliferation of bacteria was tested directly using a ^3 H-thymidine incorporation assay. […] In summary although there is some strain to strain variation in the IC50, all of the Gram-negativestrains tested in two different types of assays were sensitive to these anti-microbial peptides.

Streptococcus pneumoniae = test: as above; type: cell-based
Experimental: as §1, §2

[1] = tested on: Staphylococcus aureus, coagulase positive; test: as above; type: cell-based
Experimental: as §1, §2

Klebsiella pneumoniae = test: as above; type: cell-based
Experimental: as §1, §2

Streptococcus pyogenes = test: as above; type: cell-based
Experimental: as §1, §2

Pseudomonas apacia = test: as above; type: cell-based
Experimental: as §1, §2

E. coli (HB101) = test: as above; type: cell-based
Experimental: as §1, §2

[2] = tested on: thioglycolate elected murine peritoneal exudate cells; test: RNI generation by thioglycolate-elicited peritoneal exudate cells; type: cell-based; settings: for RNI (reactive nitrogen intermediate): RNIP 50 nm
Experimental: From the sequence of the CAP18 cDNA, it was apparent that the putative N-terminal peptide of CAP18 was in fact an internal fragment of the CAP18 protein. We therefore tried to reconfirm the original protein sequence. Neutrophil-derived heparin bound cationic proteins were prepared as described above and applied to a C18 reverse phase HPLC (FIG. 1). We sequenced the major peaks. Peaks at fractions 14.5 and 15.2 correspond to defensins MCP1 and MCP2 (Territo et al. (1989) J. Clin. Invest. 84:2017-2019), respectively. Fraction 25.8 is macrophage related protein 14 (MRP14) (Odink et al. (1987) Nature 330:80-82). The fraction at 20.3 minutes corresponds to a fragment of CAP18 of approximately 4-5 kD. […] The murine macrophage cell line RAW 264.7 (obtained from ATCC) and thioglycolate-elicited murine peritoneal exudate cells are used to produce RNI. Cells are cultured at 1×10^6 /ml. in RPMI-1640 +2.5% FCS in 24 well plates in the presence or absence of different concentrations of LPS or murine rlFNγ. After 24 hr. incubation at 37° C. the cell free supernatant is collected and tested for the presence of RNI. Accumulation of nitrite in the medium is measured by a colorimetric assay based on the Griess reaction (Green et al. (1982) Anal. Biochem. 126:11) using sodium nitrite as standards. Sample (50 μl) is mixed with 50 μl of Griess reagent (1% sulfanilamide, 0.1% naphthalene diamine dihydrochloride, 2.5% H3 PO4) and after 10 min. at room temperature absorbance is read at 570 nm.

[3] = tested on: E. coli 09:K39 K^+ strain; test: Antibacterial CFU assay; settings: FIG. 6H
human mononuclear cells = test: LPS-induced tissue factor by human mononuclear cells; type: cell-based; settings: for Δ Units (%): LPS alone 100, 960 min
Experimental: Human mononuclear cells were separated from citrated peripheral blood by centrifugation over Sodium-metrizoate-Ficoll (lymphocyte Separation Medium, Japan Antibody Institute, Gumma). The resulting mixed mononuclear cell suspension was washed 3 times with RPMI 1640 media. Cell suspension (1×10^6 /ml) was stimulated with LPS for 16 to 18 hr.
Veronal buffered saline (VBS) was added to the cell pellet, lysed by 3 cycles of freeze/thaw and sonicated for 10 sec with a hand-held sonicator microbe (Handy Sonic, model UR-20P, Tomy Seiko LTD, Tokyo). Tissue factor activity was tested in modified unactivated partial thromboplastin time (7). One tenth ml of cell lysate (1×10^6 /ml) was preincubated with mouse plasma at 37° C. for 3 min. Then 0.1 ml of 25 mM-CaCl2 which contains phospholipid was added to the mixture and clotting time was measured using a fibrometer (Bio Quest Division, Becton Dickinson, Cokeysville, USA). A standard curve obtained from serial two-fold dilutions of rabbit brain thromboplastic (Simplastin, Ono Pharmaceutical Co.) was used to transpose tissue factor activity into arbitrary tissue factor units (1 μg/ml) suspension of rabbit brain was assigned a value of 1,000 units).
The mean tissue factor units+standard error was determined from three to four samples. Student's t test for unpair data was used to determine the statistically significant differences. A two-tailed P value of <0.05 was considered significant.
S. minnesota SmoothLPS (2 μg/ml) was preincubated with equal volume of
each LPSbinding protein (28HA) at 37° C. for 45 minutes, and the
mixture was added to the cells and cultured for 16 hours.

human monocytes = test: TNF release from LPS and IFNγ stimulated monocytes; type: cell-based
[4] = RNIP 6 μg/ml (so in the source)
[5] = first experiment, LPS 0.1 μg/ml
[6] = second experiment, LPS 0.1 μg/ml

RNIP: reactive nitrogen inhibitory protein, amino acids 135-171 of SEQ ID NO:4 (rabbit CAP18 C-terminus); purified from granulocytes or synthetic (#197) (GLRKRLRKFRNKIKEKLKKIGQKIQGLLPKLAPRTDY)
effect on LPS-induced inhibition of proliferation (RAW 264.7 cells): reverses the inhibition of proliferation
Percent inhibition of proliferation (Pseudomonas aeruginosa; RNIP 1.25 μg/ml): 82%
Percent inhibition of proliferation (Pseudomonas aeruginosa; RNIP 2.5 μg/ml): 96%
Percent inhibition of proliferation (Pseudomonas aeruginosa; RNIP 5.0 μg/ml): 99%
Percent inhibition of proliferation (Pseudomonas aeruginosa; [4]): 75%
Percent inhibition of proliferation (Streptococcus pneumoniae; RNIP 1.25 μg/ml): 47%
Percent inhibition of proliferation (Streptococcus pneumoniae; RNIP 2.5 μg/ml): 68%
Percent inhibition of proliferation (Streptococcus pneumoniae; RNIP 5.0 μg/ml): 93%
Percent inhibition of proliferation (Streptococcus pneumoniae; [4]): 31%
Percent inhibition of proliferation ([1]; RNIP 1.25 μg/ml): 57%
Percent inhibition of proliferation ([1]; RNIP 2.5 μg/ml): 72%
Percent inhibition of proliferation ([1]; RNIP 5.0 μg/ml): 83%
Percent inhibition of proliferation [1, 4]: 23%
Percent inhibition of proliferation (Klebsiella pneumoniae; RNIP 1.25 μg/ml): 14%
Percent inhibition of proliferation (Klebsiella pneumoniae; RNIP 2.5 μg/ml): 17%
Percent inhibition of proliferation (Klebsiella pneumoniae; RNIP 5.0 μg/ml): 60%
Percent inhibition of proliferation (Klebsiella pneumoniae; [4]): 4%
Percent inhibition of proliferation (Streptococcus pyogenes; RNIP 1.25 μg/ml): 79%
Percent inhibition of proliferation (Streptococcus pyogenes; RNIP 2.5 μg/ml): 90%
Percent inhibition of proliferation (Streptococcus pyogenes; RNIP 5.0 μg/ml): 96%
Percent inhibition of proliferation (Streptococcus pyogenes; [4]): 74%
Percent inhibition of proliferation (Pseudomonas apacia; RNIP 1.25 μg/ml): 80%
Percent inhibition of proliferation (Pseudomonas apacia; RNIP 2.5 μg/ml): 99%
Percent inhibition of proliferation (Pseudomonas apacia; RNIP 5.0 μg/ml): 99%
Percent inhibition of proliferation (Pseudomonas apacia; [4]): 81%
Percent inhibition of proliferation (E. coli (HB101); RNIP 1.25 μg/ml): 88%
Percent inhibition of proliferation (E. coli (HB101); RNIP 2.5 μg/ml): 99%
Inhibition (%) of proliferation (E. coli (HB101); RNIP 2.5 μg/ml, FCS 0 %): 94 ± 10.3%
Inhibition (%) of proliferation (E. coli (HB101); RNIP 2.5 μg/ml, FCS 1 %): 91 ± 10.9%
Inhibition (%) of proliferation (E. coli (HB101); RNIP 2.5 μg/ml, FCS 5 %): 87 ± 3.1%
Inhibition (%) of proliferation (E. coli (HB101); RNIP 2.5 μg/ml, FCS 10 %): 78 ± 5.5%
Percent inhibition of proliferation (E. coli (HB101); RNIP 5.0 μg/ml): 99%
Percent inhibition of proliferation (E. coli (HB101); [4]): 81%
RNI (reactive nitrogen intermediate) ([2]; IFN 500 U/ml, without RNIP 4.0 ± 0.8): 1.1 µM
RNI (reactive nitrogen intermediate) ([2]; LPS + IFNγ 1 ng + 500 U/ml, without RNIP 26 ± 0.6): 14 ± 0.7 µM
IC50 ([2]; read-out: IC50 for inhibition of gamma interferon stimulated nitrogen radical release): < 0.05 µM
anti-bacterial IC50 [3]: 0.14 µg/mL
IC50 ([3]; read-out: anti-bacterial IC50): 0.02 µM
Inhibition (%) (human mononuclear cells; [5]): 51%
Tissue Factor, figure in parentheses (relative to unstimulated = 1.0) (human mononuclear cells; first experiment, LPS 0.1 μg/ml, LPS alone 16.6): 9.0
Δ Units (%) (human mononuclear cells; [5]): 49%
Δ Units (human mononuclear cells; first experiment, LPS 0.1 μg/ml, LPS alone 17118): 8342
Tissue Factor (human mononuclear cells; first experiment, LPS 0.1 μg/ml, LPS alone 18214 ± 4192, RNIP 2 HA units, CAP-18 1 HA unit): 9438 ± 293 Units × 10^3 /3.6 × 10^4 cells
Inhibition (%) (human mononuclear cells; [6]): 41%
Tissue Factor, figure in parentheses (relative to unstimulated = 1.0) (human mononuclear cells; second experiment, LPS 0.1 μg/ml, LPS alone 14.7): 9.0
Δ Units (%) (human mononuclear cells; [6]): 59%
Δ Units (human mononuclear cells; second experiment, LPS 0.1 μg/ml, LPS alone 6726): 3950
Tissue Factor (human mononuclear cells; second experiment, LPS 0.1 μg/ml, LPS alone 7218 ± 264, HA units HP-1 4, HP-2 2, RNIP 2, CAP-18 1): 4442 ± 982 Units × 10^3 /3.6 × 10^4 cells
Tissue Factor, figure in parentheses (relative to unstimulated = 1.0) (human mononuclear cells; second experiment, no LPS): 1.3
Δ Units (human mononuclear cells; second experiment, no LPS): 144
Tissue Factor (human mononuclear cells; second experiment, no LPS, unstimulated 492 ± 75): 636 ± 141 Units × 10^3 /3.6 × 10^4 cells
TNF (human monocytes; Human IFNγ (100 U), (1:1), stimulus alone 2.0): 0.27 ng/mL
TNF (human monocytes; Human IFNγ (100 U), (1:10), stimulus alone 2.0): 0.35 ng/mL
TNF (human monocytes; Human IFNγ (100 U), (1:100), stimulus alone 2.0): 0.35 ng/mL
TNF (human monocytes; LPS (10 ng/ml), (1:1), stimulus alone 1.0): 0.12 ng/mL
TNF (human monocytes; LPS (10 ng/ml), (1:10), stimulus alone 1.0): 0.34 ng/mL
TNF (human monocytes; LPS (10 ng/ml), (1:100), stimulus alone 1.0): 0.23 ng/mL

Reference: patent US5618675A, “Methods and compositions for detecting lipopolysaccharides using CAP18 fragments” (Panorama Research, Inc., dated 1997)
